Results published in ChEMBL document CHEMBL3991601, “The target landscape of clinical kinase drugs” (Science, 2017).
Calls of active or inactive are those of the source. Rule as the data show it, for most assays here: actives have a measured Kd and inactives only a lower limit.

Tests used:
[1] = molecular target: Epidermal growth factor receptor (Homo sapiens, UniProt P00533)
[2] = molecular target: Serine/threonine-protein kinase N2 (Homo sapiens, UniProt Q16513)
[3] = molecular target: Dual specificity tyrosine-phosphorylation-regulated kinase 1A (Homo sapiens, UniProt Q13627)
[4] = molecular target: T1, AarF domain-containing protein kinase 1 (Homo sapiens, UniProt Q86TW2)
T1 sequence (Q86TW2 whole entry): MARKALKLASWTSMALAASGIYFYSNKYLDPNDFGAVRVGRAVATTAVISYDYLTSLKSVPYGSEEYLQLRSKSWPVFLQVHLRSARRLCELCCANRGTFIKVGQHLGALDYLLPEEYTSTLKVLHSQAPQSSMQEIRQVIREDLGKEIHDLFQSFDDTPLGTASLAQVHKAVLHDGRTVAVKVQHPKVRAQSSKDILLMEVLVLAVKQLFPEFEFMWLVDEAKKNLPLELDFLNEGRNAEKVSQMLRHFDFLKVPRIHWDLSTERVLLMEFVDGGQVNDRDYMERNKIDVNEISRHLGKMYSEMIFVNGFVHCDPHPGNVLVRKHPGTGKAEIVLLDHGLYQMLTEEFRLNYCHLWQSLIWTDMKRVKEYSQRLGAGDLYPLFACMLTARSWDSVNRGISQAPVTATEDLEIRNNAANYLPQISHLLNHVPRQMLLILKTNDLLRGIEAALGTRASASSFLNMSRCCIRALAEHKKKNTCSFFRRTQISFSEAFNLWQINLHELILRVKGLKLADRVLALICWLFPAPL

Activin receptor type-2B = Activin receptor type-2B (Homo sapiens, UniProt Q13705)
Chain of Activin receptor type-2B (Q13705 whole entry): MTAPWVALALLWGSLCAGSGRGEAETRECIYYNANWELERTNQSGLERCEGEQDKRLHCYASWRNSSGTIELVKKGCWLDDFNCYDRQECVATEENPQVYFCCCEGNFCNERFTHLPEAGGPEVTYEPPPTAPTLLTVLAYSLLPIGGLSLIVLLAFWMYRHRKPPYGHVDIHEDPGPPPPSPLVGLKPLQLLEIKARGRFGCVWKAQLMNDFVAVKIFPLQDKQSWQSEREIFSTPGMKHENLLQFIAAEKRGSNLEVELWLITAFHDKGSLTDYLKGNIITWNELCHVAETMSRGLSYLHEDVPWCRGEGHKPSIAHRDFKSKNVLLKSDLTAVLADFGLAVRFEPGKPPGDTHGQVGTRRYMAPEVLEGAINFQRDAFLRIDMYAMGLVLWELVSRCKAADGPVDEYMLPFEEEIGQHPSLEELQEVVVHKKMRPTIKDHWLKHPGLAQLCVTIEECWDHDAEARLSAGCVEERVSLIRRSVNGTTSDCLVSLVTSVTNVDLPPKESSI

[5] = molecular target: Receptor-interacting serine/threonine-protein kinase 2 (Homo sapiens, UniProt O43353)
Chain of Receptor-interacting serine/threonine-protein kinase 2 (O43353 whole entry): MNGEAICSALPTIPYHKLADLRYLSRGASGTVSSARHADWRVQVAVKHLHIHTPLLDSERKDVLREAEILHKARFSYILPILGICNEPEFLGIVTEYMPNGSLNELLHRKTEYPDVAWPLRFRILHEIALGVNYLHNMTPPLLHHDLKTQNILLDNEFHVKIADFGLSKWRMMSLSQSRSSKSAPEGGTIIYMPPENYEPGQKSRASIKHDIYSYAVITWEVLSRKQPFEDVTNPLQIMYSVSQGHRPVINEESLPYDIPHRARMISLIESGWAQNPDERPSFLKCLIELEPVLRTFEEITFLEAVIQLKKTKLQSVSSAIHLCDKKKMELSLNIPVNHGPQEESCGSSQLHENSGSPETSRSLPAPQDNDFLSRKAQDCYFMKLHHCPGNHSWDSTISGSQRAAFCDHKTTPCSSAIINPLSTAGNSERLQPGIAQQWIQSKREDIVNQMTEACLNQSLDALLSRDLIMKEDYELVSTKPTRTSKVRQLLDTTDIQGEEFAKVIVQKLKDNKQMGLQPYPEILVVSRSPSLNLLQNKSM

[6] = molecular target: Protein kinase C alpha type (Homo sapiens, UniProt P17252)
[7] = molecular target: Cyclin-dependent kinase 2 (Homo sapiens, UniProt P24941)
[8] = molecular target: Dual specificity mitogen-activated protein kinase kinase 1 (Homo sapiens, UniProt Q02750)
Chain of Dual specificity mitogen-activated protein kinase kinase 1 (Q02750 whole entry): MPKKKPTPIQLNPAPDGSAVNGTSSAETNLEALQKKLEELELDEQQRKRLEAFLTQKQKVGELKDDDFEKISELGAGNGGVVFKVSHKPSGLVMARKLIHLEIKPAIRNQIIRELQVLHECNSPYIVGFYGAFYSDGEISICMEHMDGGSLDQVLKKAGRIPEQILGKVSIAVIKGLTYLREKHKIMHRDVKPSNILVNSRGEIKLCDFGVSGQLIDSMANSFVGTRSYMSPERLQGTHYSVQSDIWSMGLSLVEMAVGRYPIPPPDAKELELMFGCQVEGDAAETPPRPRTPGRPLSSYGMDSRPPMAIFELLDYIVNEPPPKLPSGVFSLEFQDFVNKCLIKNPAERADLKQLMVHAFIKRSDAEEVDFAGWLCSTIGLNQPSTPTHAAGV

[9] = molecular target: Macrophage-stimulating protein receptor (Homo sapiens, UniProt Q04912)
[10] = molecular target: Mitogen-activated protein kinase kinase kinase 4 (Homo sapiens, UniProt Q9Y6R4)
[11] = molecular target: T2, Serine/threonine-protein kinase STK11 (Homo sapiens, UniProt Q15831)
T2 sequence (Q15831 whole entry): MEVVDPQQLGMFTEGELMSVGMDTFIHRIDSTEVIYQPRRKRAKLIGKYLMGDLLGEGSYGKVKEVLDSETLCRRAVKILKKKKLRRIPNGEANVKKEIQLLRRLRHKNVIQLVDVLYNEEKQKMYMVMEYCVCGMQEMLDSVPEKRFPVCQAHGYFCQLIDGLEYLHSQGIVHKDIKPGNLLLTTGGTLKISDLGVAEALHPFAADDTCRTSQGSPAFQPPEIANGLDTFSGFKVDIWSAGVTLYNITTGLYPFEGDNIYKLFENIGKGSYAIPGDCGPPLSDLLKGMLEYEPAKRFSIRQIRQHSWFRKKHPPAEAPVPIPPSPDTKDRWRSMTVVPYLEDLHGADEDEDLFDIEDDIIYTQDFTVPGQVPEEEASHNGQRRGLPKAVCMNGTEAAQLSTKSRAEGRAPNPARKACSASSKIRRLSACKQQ

[12] = molecular target: Dual specificity protein kinase CLK1 (Homo sapiens, UniProt P49759)
Chain of Dual specificity protein kinase CLK1 (P49759 whole entry): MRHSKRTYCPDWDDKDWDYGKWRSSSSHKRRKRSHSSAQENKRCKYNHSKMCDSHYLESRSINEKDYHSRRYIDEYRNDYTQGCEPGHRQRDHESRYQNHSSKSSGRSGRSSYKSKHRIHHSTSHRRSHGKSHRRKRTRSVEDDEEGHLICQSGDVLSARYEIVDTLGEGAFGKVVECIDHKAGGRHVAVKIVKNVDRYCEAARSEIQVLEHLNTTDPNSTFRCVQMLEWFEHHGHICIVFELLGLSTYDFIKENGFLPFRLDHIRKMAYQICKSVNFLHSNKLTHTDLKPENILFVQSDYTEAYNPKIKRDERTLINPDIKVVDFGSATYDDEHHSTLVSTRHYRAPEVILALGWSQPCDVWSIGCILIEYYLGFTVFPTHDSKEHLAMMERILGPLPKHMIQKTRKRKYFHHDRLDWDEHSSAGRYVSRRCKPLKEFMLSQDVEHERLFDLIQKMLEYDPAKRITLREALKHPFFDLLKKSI

[13] = molecular target: T3, MAP/microtubule affinity-regulating kinase 4 (Homo sapiens, UniProt Q96L34)
T3 sequence (Q96L34 whole entry): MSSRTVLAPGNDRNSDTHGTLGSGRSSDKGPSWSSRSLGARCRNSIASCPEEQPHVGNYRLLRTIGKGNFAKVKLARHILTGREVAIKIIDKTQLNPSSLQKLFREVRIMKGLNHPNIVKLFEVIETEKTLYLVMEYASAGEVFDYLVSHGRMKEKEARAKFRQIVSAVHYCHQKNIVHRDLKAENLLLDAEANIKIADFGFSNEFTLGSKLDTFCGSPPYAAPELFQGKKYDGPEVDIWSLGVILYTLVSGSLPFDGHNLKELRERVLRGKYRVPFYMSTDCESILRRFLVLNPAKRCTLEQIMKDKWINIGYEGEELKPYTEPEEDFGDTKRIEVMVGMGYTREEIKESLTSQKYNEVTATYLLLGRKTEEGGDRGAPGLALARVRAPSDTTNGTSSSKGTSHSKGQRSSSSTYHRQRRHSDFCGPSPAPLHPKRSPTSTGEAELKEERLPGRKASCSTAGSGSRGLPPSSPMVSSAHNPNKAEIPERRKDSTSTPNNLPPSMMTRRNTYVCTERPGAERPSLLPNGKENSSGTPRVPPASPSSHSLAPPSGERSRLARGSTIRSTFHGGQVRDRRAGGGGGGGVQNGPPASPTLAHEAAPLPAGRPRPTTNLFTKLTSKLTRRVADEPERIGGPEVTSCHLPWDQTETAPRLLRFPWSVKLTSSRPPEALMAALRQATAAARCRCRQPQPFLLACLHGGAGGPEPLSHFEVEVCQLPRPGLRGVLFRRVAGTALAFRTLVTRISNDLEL
Also: in the data inactive means no Kd found up to 30 µM.

Chain of Epidermal growth factor receptor (P00533 whole entry): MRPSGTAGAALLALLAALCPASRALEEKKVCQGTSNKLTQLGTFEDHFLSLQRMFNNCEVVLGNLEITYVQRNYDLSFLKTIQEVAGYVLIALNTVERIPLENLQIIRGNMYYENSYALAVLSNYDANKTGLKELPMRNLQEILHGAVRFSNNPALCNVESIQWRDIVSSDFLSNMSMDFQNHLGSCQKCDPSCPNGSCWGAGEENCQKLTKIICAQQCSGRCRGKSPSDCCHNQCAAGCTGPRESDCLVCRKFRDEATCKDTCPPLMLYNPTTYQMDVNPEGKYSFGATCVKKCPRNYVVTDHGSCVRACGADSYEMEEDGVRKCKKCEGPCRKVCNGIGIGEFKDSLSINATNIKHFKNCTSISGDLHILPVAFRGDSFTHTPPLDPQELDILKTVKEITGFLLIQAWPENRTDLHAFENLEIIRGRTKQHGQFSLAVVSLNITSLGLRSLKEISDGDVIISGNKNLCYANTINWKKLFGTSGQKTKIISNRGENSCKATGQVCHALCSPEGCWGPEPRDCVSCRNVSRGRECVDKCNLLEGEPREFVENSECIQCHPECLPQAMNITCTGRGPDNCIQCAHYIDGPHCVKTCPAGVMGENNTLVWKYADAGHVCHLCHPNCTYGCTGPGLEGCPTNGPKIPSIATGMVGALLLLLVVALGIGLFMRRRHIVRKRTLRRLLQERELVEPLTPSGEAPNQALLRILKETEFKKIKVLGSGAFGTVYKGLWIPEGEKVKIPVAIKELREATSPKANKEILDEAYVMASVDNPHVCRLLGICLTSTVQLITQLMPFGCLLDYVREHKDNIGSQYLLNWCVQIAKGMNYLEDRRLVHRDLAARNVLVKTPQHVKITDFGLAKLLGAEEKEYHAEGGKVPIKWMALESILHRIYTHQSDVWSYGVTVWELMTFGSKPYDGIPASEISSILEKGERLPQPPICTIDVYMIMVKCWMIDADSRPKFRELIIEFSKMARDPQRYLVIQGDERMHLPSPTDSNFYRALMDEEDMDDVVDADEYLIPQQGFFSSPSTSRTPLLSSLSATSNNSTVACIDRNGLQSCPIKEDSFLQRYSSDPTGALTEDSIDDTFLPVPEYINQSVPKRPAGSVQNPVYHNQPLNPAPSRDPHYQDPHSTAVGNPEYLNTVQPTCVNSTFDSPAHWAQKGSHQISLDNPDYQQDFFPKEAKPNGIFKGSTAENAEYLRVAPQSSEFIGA
Chain of Serine/threonine-protein kinase N2 (Q16513 whole entry): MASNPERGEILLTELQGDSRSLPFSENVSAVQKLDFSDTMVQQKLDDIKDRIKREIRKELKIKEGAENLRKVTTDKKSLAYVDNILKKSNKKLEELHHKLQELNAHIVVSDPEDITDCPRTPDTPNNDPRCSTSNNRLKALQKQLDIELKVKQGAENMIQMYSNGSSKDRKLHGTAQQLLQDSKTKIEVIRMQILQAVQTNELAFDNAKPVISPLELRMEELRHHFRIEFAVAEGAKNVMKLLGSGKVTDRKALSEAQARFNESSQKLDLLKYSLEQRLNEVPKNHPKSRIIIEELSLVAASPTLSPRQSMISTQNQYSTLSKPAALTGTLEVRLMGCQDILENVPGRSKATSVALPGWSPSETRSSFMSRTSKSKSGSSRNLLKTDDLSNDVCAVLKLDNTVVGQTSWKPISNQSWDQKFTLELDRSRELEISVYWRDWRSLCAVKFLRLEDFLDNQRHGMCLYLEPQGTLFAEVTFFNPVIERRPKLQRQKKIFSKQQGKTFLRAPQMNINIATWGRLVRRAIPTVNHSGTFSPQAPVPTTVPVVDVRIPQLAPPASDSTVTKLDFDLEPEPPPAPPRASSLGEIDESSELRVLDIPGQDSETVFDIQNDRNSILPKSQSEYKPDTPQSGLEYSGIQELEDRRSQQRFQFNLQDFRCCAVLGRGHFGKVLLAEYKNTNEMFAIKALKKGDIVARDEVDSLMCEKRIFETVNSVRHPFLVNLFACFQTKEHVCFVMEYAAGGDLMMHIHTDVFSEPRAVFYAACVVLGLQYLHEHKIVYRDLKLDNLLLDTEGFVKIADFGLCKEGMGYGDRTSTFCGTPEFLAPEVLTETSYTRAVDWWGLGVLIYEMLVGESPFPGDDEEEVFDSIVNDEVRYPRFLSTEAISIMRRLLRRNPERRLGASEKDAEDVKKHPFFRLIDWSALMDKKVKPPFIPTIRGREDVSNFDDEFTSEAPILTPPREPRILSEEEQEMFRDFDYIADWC

SMILES	Kd [1]	Kd [2]	Kd [3]	Kd [4]	Kd (Activin receptor type-2B)	Kd [5]	Kd [6]	Kd [7]	Kd [8]	Kd [9]	Kd [10]	Kd [11]	Kd [12]	Kd [13]
C[C@@H](Oc1cc(C(=O)Nc2ccc(C(=O)N3CCN(C)CC3)cc2)nnc1N)c1c(Cl)ccc(F)c1Cl	> 30 µM (inactive)	> 30 µM (inactive)	> 30 µM (inactive)	> 30 µM (inactive)	> 30 µM (inactive)	> 30 µM (inactive)	> 30 µM (inactive)	> 30 µM (inactive)	> 30 µM (inactive)	> 30 µM (inactive)	> 30 µM (inactive)			
C[C@H]1CNCCCN1S(=O)(=O)c1cccc2cncc(F)c12	> 30 µM (inactive)	0.285 µM (active)	> 30 µM (inactive)	> 30 µM (inactive)	> 30 µM (inactive)	> 30 µM (inactive)	> 30 µM (inactive)	> 30 µM (inactive)	> 30 µM (inactive)	> 30 µM (inactive)	> 30 µM (inactive)	> 30 µM (inactive)		
CC(=O)c1cnc2ccc(-c3cc(Cl)c(O)c(Cl)c3)nc2c1N[C@H]1CC[C@H](CN(C)C)CC1	> 30 µM (inactive)	> 30 µM (inactive)	0.01 µM (active)	> 30 µM (inactive)	> 30 µM (inactive)	0.005 µM (active)		0.091 µM (active)	0.968 µM (active)	0.311 µM (active)	> 30 µM (inactive)	> 30 µM (inactive)	0.011 µM (active)	
Cc1nc(NC(=O)N2CCC[C@H]2C(N)=O)sc1-c1ccnc(C(C)(C)C(F)(F)F)c1 [ALPELISIB]	> 30 µM (inactive)	> 30 µM (inactive)	> 30 µM (inactive)	> 30 µM (inactive)		> 30 µM (inactive)	> 30 µM (inactive)	> 30 µM (inactive)	> 30 µM (inactive)	> 30 µM (inactive)	> 30 µM (inactive)	> 30 µM (inactive)	> 30 µM (inactive)	
COc1cc([C@@H]2c3cc4c(cc3[C@H](O)[C@H]3COC(=O)[C@@H]23)OCO4)cc(OC)c1OC [AXL-1717]	> 30 µM (inactive)	> 30 µM (inactive)	> 30 µM (inactive)	> 30 µM (inactive)	> 30 µM (inactive)	> 30 µM (inactive)	> 30 µM (inactive)	> 30 µM (inactive)	> 30 µM (inactive)	> 30 µM (inactive)	> 30 µM (inactive)	> 30 µM (inactive)		
Cc1cccc(-c2nn3c(c2-c2ccnc4ccc(C(N)=O)cc24)CCC3)n1 [GALUNISERTIB]	> 30 µM (inactive)	> 30 µM (inactive)	> 30 µM (inactive)	> 30 µM (inactive)	> 30 µM (inactive)	0.038 µM (active)	> 30 µM (inactive)	> 30 µM (inactive)	> 30 µM (inactive)	> 30 µM (inactive)	> 30 µM (inactive)	> 30 µM (inactive)	> 30 µM (inactive)	
O=C(Nc1cc(C(F)(F)F)cc(C(F)(F)F)c1)c1cc(Cl)ccc1O [IMD-0354]	> 30 µM (inactive)	> 30 µM (inactive)	> 30 µM (inactive)	> 30 µM (inactive)	> 30 µM (inactive)	> 30 µM (inactive)	> 30 µM (inactive)	> 30 µM (inactive)	> 30 µM (inactive)	> 30 µM (inactive)	> 30 µM (inactive)	> 30 µM (inactive)	> 30 µM (inactive)	
CNC(=O)c1nn(C)c2c1C(C)(C)Cc1cnc(Nc3ccc(N4CCN(C)CC4)cc3)nc1-2 [MILCICLIB]		> 30 µM (inactive)	0.105 µM (active)	> 30 µM (inactive)	> 30 µM (inactive)	> 30 µM (inactive)	> 30 µM (inactive)	0.739 µM (active)	> 30 µM (inactive)	1.99 µM (active)	4.02 µM (active)	> 30 µM (inactive)	0.008 µM (active)	> 30 µM (inactive)
CN(C[C@@H]1COCCO1)S(=O)(=O)Nc1ccc2ccc3ncc(-c4cnn(C)c4)cc3c(=O)c2c1 [MK-2461]	> 30 µM (inactive)	> 30 µM (inactive)	> 30 µM (inactive)	> 30 µM (inactive)	> 30 µM (inactive)	> 30 µM (inactive)	> 30 µM (inactive)	> 30 µM (inactive)	> 30 µM (inactive)	0.278 µM (active)	> 30 µM (inactive)	> 30 µM (inactive)		
CCCCCCCCCCCCCCCCCCOP(=O)([O-])OC1CC[N+](C)(C)CC1 [PERIFOSINE]	> 30 µM (inactive)	> 30 µM (inactive)	> 30 µM (inactive)	> 30 µM (inactive)	> 30 µM (inactive)	> 30 µM (inactive)	> 30 µM (inactive)	> 30 µM (inactive)	> 30 µM (inactive)	> 30 µM (inactive)	> 30 µM (inactive)	> 30 µM (inactive)	> 30 µM (inactive)	
CNC(=O)c1cc(Oc2ccc(NC(=O)Nc3cc(C(C)(C)C)nn3-c3ccc4ncccc4c3)c(F)c2)ccn1 [REBASTINIB]		> 30 µM (inactive)	> 30 µM (inactive)	> 30 µM (inactive)	> 30 µM (inactive)	> 30 µM (inactive)	> 30 µM (inactive)	0.199 µM (active)	> 30 µM (inactive)	0.732 µM (active)	> 30 µM (inactive)	> 30 µM (inactive)	2.14 µM (active)	> 30 µM (inactive)
CN1CCN(CCOc2cc(OC3CCOCC3)c3c(Nc4c(Cl)ccc5c4OCO5)ncnc3c2)CC1 [SARACATINIB]		> 30 µM (inactive)	> 30 µM (inactive)	> 30 µM (inactive)	3.88 µM (active)	0.002 µM (active)	> 30 µM (inactive)	> 30 µM (inactive)	> 30 µM (inactive)	> 30 µM (inactive)	> 30 µM (inactive)	> 30 µM (inactive)	> 30 µM (inactive)	> 30 µM (inactive)
Cn1ncc(Cl)c1-c1cc(C(=O)N[C@H](CN)Cc2ccc(F)c(F)c2)oc1Cl [UPROSERTIB]	> 30 µM (inactive)	> 30 µM (inactive)	0.238 µM	> 30 µM (inactive)	> 30 µM (inactive)	> 30 µM (inactive)	1.67 µM (active)	> 30 µM (inactive)	> 30 µM (inactive)	> 30 µM (inactive)	> 30 µM (inactive)	> 30 µM (inactive)		
CN1C/C=C/CCOc2cccc(c2)-c2ccnc(n2)Nc2cccc(c2)C1 [ZOTIRACICLIB]	79.9 µM	0.141 µM	5.62 µM	0.023 µM	> 30 µM (inactive)	> 30 µM (inactive)	0.885 µM (active)		> 30 µM (inactive)	> 30 µM (inactive)	> 30 µM (inactive)	> 30 µM (inactive)	> 30 µM (inactive)	
